Reference: US8748485B2, “Compound and medical use thereof” (Ono Pharmaceuticals Co., Ltd., priority 2010, dated 2014)

What was measured:
[1] = Kinetic study in dogs (oral administration, plasma levodopa); settings: dog, in vivo, po, 3 mg/kg; for Cmax/C6 hr (ratio of maximum plasma concentration and plasma concentration at 6 hours after oral administration, levodopa): male, beagle
Description: The relationship between the blood concentration of levodopa and side effects in patients who take levodopa has been gradually elucidated. […] In order to reduce the number of doses of levodopa and avoid side effects such as dyskinesia and wearing-off in patients who take levodopa, it is necessary to maintain the blood concentration of levodopa within a therapeutic range as long as possible.
These levodopa prodrugs are prodrugs containing an ester bond, and therefore, it is considered that among a number of enzymes, carboxyesterase plays the most important role in the process of producing levodopa by metabolizing the compound after the compound is administered in vivo. Therefore, as an animal species to be used for performing a kinetic study, dogs in which the organ distribution of carboxyesterase is most similar to that of humans were selected as subjects for evaluation.
The thus obtained drug solution was administered by gavage through a gastric tube into the stomach of dogs (male beagle dogs) which were fasted from the day before the administration. At 15 and 30 minutes, and 1, 2, 4, 6, and 8 hours after administration of the drug solution, 1 mL of blood was collected from a cephalic vein with a heparinized syringe. Immediately after the collection, the collected blood was centrifuged in a desktop centrifuge at 14500 rpm for 45 seconds. Then, acetonitrile containing 0.1125% formic acid was added to the thus obtained plasma in an amount as twice as large as the volume of the plasma, followed by stirring, and then, the resulting sample was stored at −20° C. until measurement.
The sample was thawed on the measurement day, followed by stirring and centrifugation at 13000 rpm for 3 minutes (at 4° C.). The resulting supernatant was filtered and the filtrate was analyzed by LC/MS/MS. The analysis was performed by LC/MS/MS under the following conditions.
Measurement Apparatus: API-5000 (manufactured by Applied Biosystems, Inc.)
Analytical column: CAPCELL PAK CR (1:4) (4.6 mm, I.D.×250 mm, 5 μm)
Analytical column temperature: 40° C.
Mobile phase: A: 5 mM ammonium formate (pH 3.9), B: acetonitrile (A/B=17/3)
Detection (levodopa): m/z (precursor): 196.19, m/z (product): 134.99
DP (Declustering Potential): −60
CE (Collision Energy): −25
CXP (Collision Cell Exit Potential): −17
Incidentally, the numerical value in the column which indicates the dose expressed in terms of levodopa refers to a dose equivalent to that of levodopa.

[2] = tested on: p53R2; experiment: Mutagenicity assay using mammalian cells (NESMAGET method); type: cell-based
Procedure: In the treatment of Parkinson's disease and/or Parkinson's syndrome, there is a possibility that a levodopa prodrug is continued to be taken over a long period of time of several years to several decades. Therefore, an evaluation was carried out as to whether or not the compound of the present invention has mutagenicity by a mutagenicity assay using mammalian cells.
A mutagenicity assay using mammalian cells was carried out as a commissioning test to be undertaken by Nissin Foods Holdings Co., Ltd. The present method also called NESMAGET method is a method in which the expression of p53R2 which is a DNA repair gene is detected by luciferase activity, and the specific experimental technique is described in JP-A-2005-000024 and Japanese Patent No. 4243716. In the determination as to whether or not the result of this test was positive, the luciferase activity of p53R2 in the case of a vehicle control (0.3% dimethylsulfoxide) was taken as 100%, and a concentration at which a relative luciferase activity exceeded 200% was determined to be “concentration at which mutagenicity was determined to be positive”.

Q: Which “AUC (area under the blood concentration-time curve of levodopa)” value (“AUC” for short) [1] does the source give for `CC(=O)OC(C)(C)C(=O)Oc1ccc(C[C@H](N)C(=O)O)cc1OC(=O)C(C)(C)OC(C)=O.Cl` [Reference Example 32, (2S)-2-Amino-3-(3,4-bis((2-acetoxy-2-methylpropanoyl)oxy)phenyl)propanoic acid hydrochloride] here?
A: Its value is 0.53 μg^+ hr/mL.

Q: And the “Cmax/C6 hr (ratio of maximum plasma concentration and plasma concentration at 6 hours after oral administration, levodopa)” value [1]?
A: The value was 40.7.

Q: Which results are given for `CC1(CC(=O)Oc2ccc(C[C@H](N)C(=O)O)cc2OC(=O)CC2(C)CCCC2)CCCC1.Cl` [Reference Example 31, (2S)-2-Amino-3-(3,4-bis(2-(1-methylcyclopentyl)acetoxy)phenyl)propanoic acid hydrochloride]?
A: AUC (area under the blood concentration-time curve of levodopa) [1]: 0.42 μg^+ hr/mL; Cmax/C6 hr (ratio of maximum plasma concentration and plasma concentration at 6 hours after oral administration, levodopa) [1]: 18.7

Q: Which “AUC” value [1] does the source give for `Cc1ccccc1C(=O)Oc1ccc(C[C@H](N)C(=O)O)cc1OC(=O)c1ccccc1C.Cl` [Reference Example 23, (2S)-2-Amino-3-(3,4-bis((2-methylbenzoyl)oxy)phenyl)propanoic acid hydrochloride] here?
A: The value was 0.59 μg^+ hr/mL.

Q: And the “Cmax/C6 hr (ratio of maximum plasma concentration and plasma concentration at 6 hours after oral administration, levodopa)” value [1]?
A: Its value is 41.5.

Q: For `CC(C)(COC(=O)c1ccsc1)C(=O)Oc1ccc(C[C@H](N)C(=O)O)cc1OC(=O)C(C)(C)COC(=O)c1ccsc1.Cl` [Reference Example 11, (2S)-2-Amino-3-(3,4-bis((2,2-dimethyl-3-((thiophene-3-carbonyl)oxy)propanoyl)oxy)phenyl)propanoic acid hydrochloride], which “AUC” value [1] is on record?
A: The value was 0.52 μg^+ hr/mL.

Q: What about the “Cmax/C6 hr (ratio of maximum plasma concentration and plasma concentration at 6 hours after oral administration, levodopa)” value [1] of the same molecule?
A: The value was 23.9.

Q: What about the “Mutagenicity assay (NESMAGET) Concentration at which mutagenicity was determined to be positive” value ([2]; concentration at which relative luciferase activity of p53R2 exceeded 200% (vehicle control 0.3% dimethylsulfoxide = 100%)) of the same molecule?
A: Its value is 1.4 µg/mL.

Q: What about the determination of mutagenicity ([2]; positive = relative luciferase activity of p53R2 exceeded 200%, compound of the present invention up to 200 μg/mL) of the same molecule?
A: The determination of mutagenicity was “positive for mutagenicity”.

Q: For `CCC(C)(CC)C(=O)Oc1ccc(C[C@H](N)C(=O)O)cc1OC(=O)C(C)(CC)CC.Cl` [Reference Example 18, (2S)-2-Amino-3-(3,4-bis((2-ethyl-2-methylbutanoyl)oxy)phenyl)propanoic acid hydrochloride], which “AUC” value [1] is on record?
A: Its value is 0.12 μg^+ hr/mL.

Q: What about the “Cmax/C6 hr (ratio of maximum plasma concentration and plasma concentration at 6 hours after oral administration, levodopa)” value [1] of the same molecule?
A: Its value is 2.9.

Q: What does the source list for `C[C@@H](OC(=O)c1ccccc1)C(=O)Oc1ccc(C[C@H](N)C(=O)O)cc1OC(=O)[C@@H](C)OC(=O)c1ccccc1.Cl` [Reference Example 35, (2S)-2-Amino-3-(3,4-bis(((R)-2-(benzoyloxy)propanoyl)oxy)phenyl)propanoic acid hydrochloride]?
A: AUC (area under the blood concentration-time curve of levodopa) [1]: 0.77 μg^+ hr/mL; Cmax/C6 hr (ratio of maximum plasma concentration and plasma concentration at 6 hours after oral administration, levodopa) [1]: 1039.6

Q: For `CCC(CC)(OC(=O)c1ccccc1)C(=O)Oc1ccc(C[C@H](N)C(=O)O)cc1OC(=O)C(CC)(CC)OC(=O)c1ccccc1.Cl` [Reference Example 33, (2S)-2-Amino-3-(3,4-bis((2-(benzoyloxy)-2-ethylbutanoyl)oxy)phenyl)propanoic acid hydrochloride], which “AUC” value [1] is on record?
A: The value was 0.003 μg^+ hr/mL.

Q: And the “Cmax/C6 hr (ratio of maximum plasma concentration and plasma concentration at 6 hours after oral administration, levodopa)” value [1]?
A: Its value is 2.0.

Q: For `CC1(CC(=O)Oc2ccc(C[C@H](N)C(=O)O)cc2OC(=O)CC2(C)CCCCC2)CCCCC1.Cl` [Reference Example 30, (2S)-2-Amino-3-(3,4-bis(2-(1-methylcyclohexyl)acetoxy)phenyl)propanoic acid hydrochloride], which “AUC” value [1] is on record?
A: Its value is 0.36 μg^+ hr/mL.

Q: And the “Cmax/C6 hr (ratio of maximum plasma concentration and plasma concentration at 6 hours after oral administration, levodopa)” value [1]?
A: Its value is 12.8.

Q: Which results are given for `CCC(C)(CC)CC(=O)Oc1ccc(C[C@H](N)C(=O)O)cc1OC(=O)CC(C)(CC)CC.Cl` [Reference Example 21, (2S)-2-Amino-3-(3,4-bis((3-ethyl-3-methylpentanoyl)oxy)phenyl)propanoic acid hydrochloride]?
A: AUC (area under the blood concentration-time curve of levodopa) [1]: 0.27 μg^+ hr/mL; Cmax/C6 hr (ratio of maximum plasma concentration and plasma concentration at 6 hours after oral administration, levodopa) [1]: 8.8

Q: Which results are given for `COC(=O)[C@@H](N)Cc1ccc(OC(=O)CC(C)(C)C)c(OC(=O)CC(C)(C)C)c1` [Compound X, 3,3-dimethyl-butyric acid 4-((S)-2-amino-2-methoxycarbonyl-ethyl)-2-(3,3-dimethyl-butyryloxy)phenyl ester]?
A: AUC (area under the blood concentration-time curve of levodopa) [1]: 0.42 μg^+ hr/mL; Cmax/C6 hr (ratio of maximum plasma concentration and plasma concentration at 6 hours after oral administration, levodopa) [1]: 12.6

Q: Which results are given for `CC1(C(=O)Oc2ccc(C[C@H](N)C(=O)O)cc2OC(=O)C2(C)CC2)CC1.Cl` [Reference Example 27, (2S)-2-Amino-3-(3,4-bis((1-methylcyclopropanecarbonyl)oxy)phenyl)propanoic acid hydrochloride]?
A: AUC (area under the blood concentration-time curve of levodopa) [1]: 0.84 μg^+ hr/mL; Cmax/C6 hr (ratio of maximum plasma concentration and plasma concentration at 6 hours after oral administration, levodopa) [1]: 58.7

Q: What does the source list for `C[C@H](OC(=O)c1ccccc1)C(=O)Oc1ccc(C[C@H](N)C(=O)O)cc1OC(=O)[C@H](C)OC(=O)c1ccccc1.Cl` [Reference Example 34, (2S)-2-Amino-3-(3,4-bis(((S)-2-(benzoyloxy)propanoyl)oxy)phenyl)propanoic acid hydrochloride]?
A: AUC (area under the blood concentration-time curve of levodopa) [1]: 0.10 μg^+ hr/mL; Cmax/C6 hr (ratio of maximum plasma concentration and plasma concentration at 6 hours after oral administration, levodopa) [1]: 16.1

Q: Which “AUC” value [1] does the source give for `CC(C)(C)CCC(=O)Oc1ccc(C[C@H](N)C(=O)O)cc1OC(=O)CCC(C)(C)C.Cl` [Reference Example 19, (2S)-2-Amino-3-(3,4-bis((4,4-dimethylpentanoyl)oxy)phenyl)propanoic acid hydrochloride] here?
A: Its value is 0.70 μg^+ hr/mL.

Q: And the “Cmax/C6 hr (ratio of maximum plasma concentration and plasma concentration at 6 hours after oral administration, levodopa)” value [1]?
A: The value was 221.2.

Q: Which results are given for `N[C@@H](Cc1ccc(OC(=O)c2ccccc2C(F)(F)F)c(OC(=O)c2ccccc2C(F)(F)F)c1)C(=O)O` [Reference Example 25, (2S)-2-Amino-3-(3,4-bis((2-(trifluoromethyl)benzoyl)oxy)phenyl)propanoic acid]?
A: AUC (area under the blood concentration-time curve of levodopa) [1]: 0.31 μg^+ hr/mL; Cmax/C6 hr (ratio of maximum plasma concentration and plasma concentration at 6 hours after oral administration, levodopa) [1]: 24.2

Q: What does the source list for `CC(C)C(CC(=O)Oc1ccc(C[C@H](N)C(=O)O)cc1OC(=O)CC(C(C)C)C(C)C)C(C)C.Cl` [Reference Example 22, (2S)-2-Amino-3-(3,4-bis((3-isopropyl-4-methylpentanoyl)oxy)phenyl)propanoic acid hydrochloride]?
A: AUC (area under the blood concentration-time curve of levodopa) [1]: 0.28 μg^+ hr/mL; Cmax/C6 hr (ratio of maximum plasma concentration and plasma concentration at 6 hours after oral administration, levodopa) [1]: 6.6

Q: Which “AUC” value [1] does the source give for `Cl.N[C@@H](Cc1ccc(OC(=O)CC2CCCC2)c(OC(=O)CC2CCCC2)c1)C(=O)O` [Reference Example 28, (2S)-2-Amino-3-(3,4-bis(2-cyclopentylacetoxy)phenyl)propanoic acid hydrochloride] here?
A: Its value is 0.68 μg^+ hr/mL.

Q: What about the “Cmax/C6 hr (ratio of maximum plasma concentration and plasma concentration at 6 hours after oral administration, levodopa)” value [1] of the same molecule?
A: The value was 304.4.

Q: For `Cl.N[C@@H](Cc1ccc(OC(=O)CC2CCCCC2)c(OC(=O)CC2CCCCC2)c1)C(=O)O` [Reference Example 29, (2S)-2-Amino-3-(3,4-bis(2-cyclohexylacetoxy)phenyl)propanoic acid hydrochloride], which “AUC” value [1] is on record?
A: Its value is 0.59 μg^+ hr/mL.

Q: And the “Cmax/C6 hr (ratio of maximum plasma concentration and plasma concentration at 6 hours after oral administration, levodopa)” value [1]?
A: Its value is 98.5.

Q: Which results are given for `Cl.N[C@@H](Cc1ccc(OC(=O)C2CC2)c(OC(=O)C2CC2)c1)C(=O)O` [Reference Example 26, (2S)-2-Amino-3-(3,4-bis((cyclopropanecarbonyl)oxy)phenyl)propanoic acid hydrochloride]?
A: AUC (area under the blood concentration-time curve of levodopa) [1]: 0.45 μg^+ hr/mL; Cmax/C6 hr (ratio of maximum plasma concentration and plasma concentration at 6 hours after oral administration, levodopa) [1]: 18.0
